This note sets out measurements from patent US20250230147A1, “LACTAMS AS CBL-B INHIBITORS” (Genentech, Inc., priority 2021, published 2025).

For one experiment, the target named is Cbl-b (Homo sapiens (Human), UniProt Q13191). In words: Cbl-b LCK Ub TR-FRET assay (Cbl-b Lck HTRF). The format is biochemical. The method in brief:
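TR-FRET (340 nm excitation, 615/665 nm emission) read after adding HA-ubiquitin–UBE2D2 thioester, anti-HA-D2 and streptavidin-Eu. Beforehand, compounds incubated 60 min with biotinylated Cbl-b, then 90 min with His-LCK and ATP (1 mM in 2× mix); IC50 from 10 concentrations, DMSO high and no-LCK low controls.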
Background: Time-resolved FRET reads energy transfer from a long-lived donor to a nearby acceptor.

Another experiment concerns the target c-Cbl (Homo sapiens (Human), UniProt P22681). As to the kind of experiment: C-Cbl LCK Ub TR-FRET assay (c-cbl Lck HTRF). Type of experiment: biochemical. The note with it: for (fold-selectivity): C-cbl Lck HTRF IC50 relative to Cbl-b Lck HTRF IC50. The method in brief: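 After the ubiquitination reaction, detection mixture was added and plates incubated 20 min at room temperature before reading. IC50 values were calculated with wells lacking LCK as the low control and DMSO as the high control.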

Cbl-b, sequence (Q13191 40-426): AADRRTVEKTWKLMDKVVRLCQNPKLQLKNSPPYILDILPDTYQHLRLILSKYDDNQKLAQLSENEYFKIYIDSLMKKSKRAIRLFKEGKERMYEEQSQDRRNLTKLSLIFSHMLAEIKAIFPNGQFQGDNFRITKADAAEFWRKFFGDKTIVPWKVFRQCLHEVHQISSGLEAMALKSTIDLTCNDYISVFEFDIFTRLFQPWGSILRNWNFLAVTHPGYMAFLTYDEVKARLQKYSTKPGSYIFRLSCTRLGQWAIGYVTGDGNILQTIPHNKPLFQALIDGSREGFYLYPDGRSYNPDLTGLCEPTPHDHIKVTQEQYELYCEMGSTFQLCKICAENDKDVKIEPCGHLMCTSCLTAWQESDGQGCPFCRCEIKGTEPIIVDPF
c-Cbl, sequence (P22681 47-435): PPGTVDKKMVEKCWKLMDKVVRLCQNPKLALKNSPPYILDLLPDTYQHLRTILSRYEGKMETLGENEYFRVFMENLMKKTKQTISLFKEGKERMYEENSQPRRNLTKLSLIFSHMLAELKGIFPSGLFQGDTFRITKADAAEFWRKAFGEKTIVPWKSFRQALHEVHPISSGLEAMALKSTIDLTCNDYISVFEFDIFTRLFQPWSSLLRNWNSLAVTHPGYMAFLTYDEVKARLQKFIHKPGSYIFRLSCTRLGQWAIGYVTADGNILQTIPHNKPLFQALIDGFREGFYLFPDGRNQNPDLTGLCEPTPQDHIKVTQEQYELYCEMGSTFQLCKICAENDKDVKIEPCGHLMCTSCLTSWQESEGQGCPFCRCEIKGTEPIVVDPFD

As a reminder, the IC50 is the concentration needed to halve the response being measured. `CC(C)CNc1cc(C2(Cc3nncn3C)CCC2)cc(N2Cc3c(cc(CNC4(C)CCC4)cc3C(F)(F)F)C2=O)n1` [Compound 348, 2-(6-(isobutylamino)-4-(1-((4-methyl-4H-1,2,4-triazol-3-yl)methyl)cyclobutyl)pyridin-2-yl)-6-(((1-methylcyclobutyl)amino)methyl)-4-(trifluoromethyl)isoindolin-1-one]: the IC50 against Cbl-b and on c-Cbl was 13 nM each time. Further, the “(fold-selectivity)” value on c-Cbl is on record as “(1.0x)”.
Consider `CC(C)[C@@H]1CN(Cc2cc3c(c(C(F)(F)F)c2)CN(c2cccc(C4(Cc5nncn5C)CC(F)(F)C4)c2)C3=O)CCN1` [Compound 428, (R)-2-(3-(3,3-difluoro-1-((4-methyl-4H-1,2,4-triazol-3-yl)methyl)cyclobutyl)phenyl)-6-((3-isopropylpiperazin-1-yl)methyl)-4-(trifluoromethyl)isoindolin-1-one], for which the IC50 against Cbl-b worked out at 14 nM; against c-Cbl it was 10 nM. The “(fold-selectivity)” value on c-Cbl was “(0.74x)”.
In the case of `Cn1cnnc1CC1(c2cccc(N3Cc4c(cc(CNC56CC(C5)C6)cc4C(F)(F)F)C3=O)c2)CC(F)(F)C1` [Compound 356, 6-((bicyclo[1.1.1]pentan-1-ylamino)methyl)-2-(3-(3,3-difluoro-1-((4-methyl-4H-1,2,4-triazol-3-yl)methyl)cyclobutyl)phenyl)-4-(trifluoromethyl)isoindolin-1-one], the IC50 against Cbl-b came to 12 nM; on c-Cbl, 10 nM. The “(fold-selectivity)” value on c-Cbl is on record as “(0.81x)”.
With `CN1CCN(Cc2cc3c(c(C(F)(F)F)c2)CN(c2cccc(C4(Cc5nncn5C)CC(F)(F)C4)c2)C3=O)C(C(F)(F)F)C1` (stereo not drawn) [Compound 374, 2-(3-(3,3-difluoro-1-((4-methyl-4H-1,2,4-triazol-3-yl)methyl)cyclobutyl)phenyl)-6-((4-methyl-2-(trifluoromethyl)piperazin-1-yl)methyl)-4-(trifluoromethyl)isoindolin-1-one], the IC50 on Cbl-b is 100 nM. Besides, at c-Cbl, half-maximal inhibition (IC50) was put at 99 nM and the “(fold-selectivity)” value is given as “(1.0x)”.
Turning to `CC(C)[C@@H]1CN(Cc2cc3c(c(C(F)(F)F)c2)CN(c2cccc(C4([C@H](F)c5nncn5C)COC4)c2)C3=O)CCN1` [Compound 93, 2-(3-(3-((S)-fluoro(4-methyl-4H-1,2,4-triazol-3-yl)methyl)oxetan-3-yl)phenyl)-6-(((R)-3-isopropylpiperazin-1-yl)methyl)-4-(trifluoromethyl)isoindolin-1-one], the IC50 against Cbl-b came to 68 nM; on c-Cbl, 78 nM. The “(fold-selectivity)” value at c-Cbl is on record as 1.1x.
As for `COC[C@H]1CCCN1Cc1cc2c(c(C(F)(F)F)c1)CN(c1cccc(C3([C@@H](F)c4nncn4C)COC3)c1)C2=O` [Compound 155, 2-(3-(3-((R)-fluoro(4-methyl-4H-1,2,4-triazol-3-yl)methyl)oxetan-3-yl)phenyl)-6-(((R)-2-(methoxymethyl)pyrrolidin-1-yl)methyl)-4-(trifluoromethyl)isoindolin-1-one], the IC50 against Cbl-b was 130 nM; against c-Cbl, 240 nM. On c-Cbl, the “(fold-selectivity)” value is on record as 1.8x.
`Cn1cnnc1[C@@H](F)C1(c2cccc(N3Cc4c(cc(CN5CC6(C5)CC6(F)F)cc4C(F)(F)F)C3=O)c2)COC1` [Compound 154, (S)-6-((1,1-difluoro-5-azaspiro[2.3]hexan-5-yl)methyl)-2-(3-(3-(fluoro(4-methyl-4H-1,2,4-triazol-3-yl)methyl)oxetan-3-yl)phenyl)-4-(trifluoromethyl)isoindolin-1-one]: the IC50 amounted to 72 nM against Cbl-b and 230 nM against c-Cbl. For the same compound, the “(fold-selectivity)” value at c-Cbl worked out at 3.2x.
As to `CCCNCc1cc2c(c(C(F)(F)F)c1)CN(c1cccc(C3([C@H](F)c4nncn4C)CC(F)(F)C3)c1)C2=O` [Compound 446, (S)-2-(3-(3,3-difluoro-1-(fluoro(4-methyl-4H-1,2,4-triazol-3-yl)methyl)cyclobutyl)phenyl)-6-((propylamino)methyl)-4-(trifluoromethyl)isoindolin-1-one], the IC50 at Cbl-b was 26 nM; on c-Cbl it was 29 nM. Further, at c-Cbl, the “(fold-selectivity)” value was “(1.3x)”.
The corresponding values for `Cn1cnnc1CC1(c2cc(OCc3ccccc3)nc(N3Cc4c(cc(CNC5(C)CCC5)cc4C(F)(F)F)C3=O)c2)CCC1` [Compound 360, 2-(6-(benzyloxy)-4-(1-((4-methyl-4H-1,2,4-triazol-3-yl)methyl)cyclobutyl)pyridin-2-yl)-6-(((1-methylcyclobutyl)amino)methyl)-4-(trifluoromethyl)isoindolin-1-one] are 20 nM, 17 nM and “(0.86x)”.
As for `Cn1cnnc1CC1(c2cccc(N3Cc4c(cc(OCc5c[nH]cn5)cc4C(F)(F)F)C3=O)c2)CC(F)(F)C1` [Compound 422, 6-((1H-imidazol-4-yl)methoxy)-2-(3-(3,3-difluoro-1-((4-methyl-4H-1,2,4-triazol-3-yl)methyl)cyclobutyl)phenyl)-4-(trifluoromethyl)isoindolin-1-one], on Cbl-b, half-maximal inhibition (IC50) required 16 nM. Besides, on c-Cbl, the IC50 amounted to 17 nM and the “(fold-selectivity)” value is recorded as “(1.1x)”.
Regarding `Cn1cnnc1[C@H](F)C1(c2cccc(N3Cc4c(cc(CN5CCC[C@@H](CO)C5)cc4C(F)(F)F)C3=O)c2)COC1` [Compound 151, 2-(3-(3-((R)-fluoro(4-methyl-4H-1,2,4-triazol-3-yl)methyl)oxetan-3-yl)phenyl)-6-(((R)-3-(hydroxymethyl)piperidin-1-yl)methyl)-4-(trifluoromethyl)isoindolin-1-one], on Cbl-b, the IC50 is 61 nM. Further, on c-Cbl, the concentration for half-maximal inhibition (IC50) worked out at 85 nM and the “(fold-selectivity)” value is reported as 1.4x.
Turning to `C=CC1(O)CN(Cc2cc3c(c(C(F)(F)F)c2)CN(c2cccc(C4([C@@H](F)c5nncn5C)COC4)c2)C3=O)C1` [Compound 169, (R)-2-(3-(3-(fluoro(4-methyl-4H-1,2,4-triazol-3-yl)methyl)oxetan-3-yl)phenyl)-6-((3-hydroxy-3-vinylazetidin-1-yl)methyl)-4-(trifluoromethyl)isoindolin-1-one], on Cbl-b, inhibition was half-maximal at 44 nM (IC50). Moreover, at c-Cbl, the IC50 was 99 nM and the “(fold-selectivity)” value is on record as 2.2x.
On the same counts, the results for `CNS(=O)(=O)CCNc1cc(C2(Cc3nncn3C)CCC2)cc(N2Cc3c(cc(CNC4(C)CCC4)cc3C(F)(F)F)C2=O)n1` [Compound 312, N-methyl-2-((4-(1-((4-methyl-4H-1,2,4-triazol-3-yl)methyl)cyclobutyl)-6-(6-(((1-methylcyclobutyl)amino)methyl)-1-oxo-4-(trifluoromethyl)isoindolin-2-yl)pyridin-2-yl)amino)ethanesulfonamide] are 70 nM, 110 nM and “(1.5x)”.
As for `Cn1cnnc1[C@H](F)C1(c2cccc(N3Cc4c(cc(CN5CCC(F)(CO)CC5)cc4C(F)(F)F)C3=O)c2)COC1` [Compound 133, (R)-2-(3-(3-(fluoro(4-methyl-4H-1,2,4-triazol-3-yl)methyl)oxetan-3-yl)phenyl)-6-((4-fluoro-4-(hydroxymethyl)piperidin-1-yl)methyl)-4-(trifluoromethyl)isoindolin-1-one], at Cbl-b, half-maximal inhibition (IC50) required 90 nM. At c-Cbl, 170 nM corresponded to half-maximal inhibition (IC50) and the “(fold-selectivity)” value came to 1.9x.
At Cbl-b, `Cc1cnnn1CC1(c2cccc(N3Cc4c(cc(CNC5(C)CCC5)cc4C(F)F)C3=O)c2)COC1` [Compound 305, 4-(difluoromethyl)-2-(3-(3-((5-methyl-1H-1,2,3-triazol-1-yl)methyl)oxetan-3-yl)phenyl)-6-(((1-methylcyclobutyl)amino)methyl) isoindolin-1-one] registered an IC50 of 39 nM. Also, at c-Cbl, half-maximal inhibition (IC50) required 49 nM and the “(fold-selectivity)” value is reported as “(1.3x)”.
In turn, `CC[C@H]1CCC[C@@H](c2cc3c(c(C(F)(F)F)c2)CN(c2cccc(C4(Cc5nncn5C)CC(F)(F)C4)c2)C3=O)N1` (single isomer, unassigned) [Compound 273] had an IC50 at Cbl-b of 51 nM. Also, on c-Cbl, the midpoint of inhibition, the IC50, lay at 77 nM and the “(fold-selectivity)” value was “(1.5x)”.
For the compound `CC(=O)N1CCN(Cc2cc3c(c(C(F)(F)F)c2)CN(c2cccc(C4([C@H](F)c5nncn5C)COC4)c2)C3=O)[C@@H](C(C)C)C1` [Compound 194, 6-(((S)-4-acetyl-2-isopropylpiperazin-1-yl)methyl)-2-(3-(3-((S)-fluoro(4-methyl-4H-1,2,4-triazol-3-yl)methyl)oxetan-3-yl)phenyl)-4-(trifluoromethyl)isoindolin-1-one], the IC50 is 270 nM at Cbl-b and 810 nM at c-Cbl. For the same compound, the “(fold-selectivity)” value at c-Cbl is given as 3.0x.
In turn, `Cn1cnnc1[C@H](F)C1(c2cccc(N3Cc4c(cc(CN5CCC56COC6)cc4C(F)(F)F)C3=O)c2)COC1` [Compound 175, (R)-6-(6-oxa-1-azaspiro[3.3]heptan-1-ylmethyl)-2-(3-(3-(fluoro(4-methyl-4H-1,2,4-triazol-3-yl)methyl)oxetan-3-yl)phenyl)-4-(trifluoromethyl)isoindolin-1-one] came in with an IC50 against Cbl-b of 150 nM. At c-Cbl, half-maximal inhibition (IC50) required 350 nM and the “(fold-selectivity)” value was 2.5x.
Take `C[C@@H]1CN(Cc2cc3c(c(C(F)(F)F)c2)CN(c2cccc(C4(Cc5nncn5C)CC(F)(F)C4)c2)C3=O)CCN1C` [Compound 220, (R)-2-(3-(3,3-difluoro-1-((4-methyl-4H-1,2,4-triazol-3-yl)methyl)cyclobutyl)phenyl)-6-((3,4-dimethylpiperazin-1-yl)methyl)-4-(trifluoromethyl)isoindolin-1-one]: half-maximal inhibition against Cbl-b (IC50) required 34 nM. On c-Cbl, inhibition was half-maximal at 35 nM (IC50) and the “(fold-selectivity)” value turned out to be 1.0x.
